Source: ChEMBL document CHEMBL1125386, “Small atrial natriuretic peptide analogues: design, synthesis, and structural requirements for guanylate cyclase activation” (J Med Chem, 1992)

Legend:
[1] = Binding affinity towards low-affinity site of Atrial natriuretic peptide receptor 1 of rabbit adrenal membrane; format: tissue-based
[2] = test system: Atrial natriuretic peptide receptor 1 (Oryctolagus cuniculus); experiment: Binding affinity towards the low-affinity site atrionatriuretic peptide receptor 1 of rabbit adrenal membrane

Row | KL [1] | KL [2] | Compound
1 | 270 nM |  | CC[C@H](C)[C@@H]1NC(=O)[C@@H](CCCN=C(N)N)NC(=O)CNC(=O)CNC(=O)[C@@H](C2CCCCC2)NC(=O)[C@H](NC(=O)[C@H](N)CCCN=C(N)N)CSSC[C@H](C(N)=O)NC(=O)[C@@H](CCCN=C(N)N)NC(=O)[C@@H]2Cc3ccccc3CN2C(=O)[C@@H]([C@@H](C)CC)NC(=O)[C@H](CCCN=C(N)N)NC(=O)[C@@H](CC(=O)O)NC1=O
2 | 7800 nM |  | CC[C@H](C)[C@@H]1NC(=O)[C@@H](CCCN=C(N)N)NC(=O)CNC(=O)CNC(=O)[C@@H](Cc2ccccc2)NC(=O)[C@@H](C)NC(=O)[C@H](NC(=O)[C@H](CO)NC(=O)[C@@H](N)CO)CSSC[C@H](C(=O)N[C@H](Cc2ccccc2)C(=O)N[C@H](CCCN=C(N)N)C(=O)O)NC(=O)[C@@H]([C@@H](C)CC)NC(=O)[C@H](CC(=O)O)NC(=O)[C@@H](CCCN=C(N)N)NC1=O
3 | 1400 nM |  | CC[C@H](C)[C@@H]1NC(=O)[C@@H](CCCN=C(N)N)NC(=O)Cc2ccc(cc2)NC(=O)Cc2ccc(cc2)NC(=O)[C@@H](Cc2ccccc2)NC(=O)C(C)NC(=O)[C@H](NC(=O)[C@H](CO)NC(=O)[C@@H](N)CO)CSSC[C@H](C(=O)N[C@H](Cc2ccccc2)C(=O)N[C@H](CCCN=C(N)N)C(=O)O)NC(=O)[C@@H]([C@@H](C)CC)NC(=O)[C@H](CCCN=C(N)N)NC(=O)[C@@H](CC(=O)O)NC1=O (stereo in doubt)
4 | 13000 nM |  | CC[C@H](C)[C@@H]1NC(=O)[C@@H](CCCN=C(N)N)NC(=O)CNC(=O)CNC(=O)[C@@H](Cc2ccc(OC)c(OC)c2)NC(=O)C(C)NC(=O)[C@H](NC(=O)[C@H](CO)NC(=O)[C@@H](N)CO)CSSC[C@H](C(=O)N[C@H](Cc2ccccc2)C(=O)N[C@H](CCCN=C(N)N)C(=O)O)NC(=O)[C@@H]([C@@H](C)CC)NC(=O)[C@H](CCCN=C(N)N)NC(=O)[C@@H](CC(=O)O)NC1=O (stereo in doubt)
5 | 290 nM |  | CC[C@H](C)[C@@H]1NC(=O)[C@@H](CCCN=C(N)N)NC(=O)CNC(=O)CNC(=O)[C@@H](Cc2ccccc2)N(C)C(=O)C(C)NC(=O)[C@H](NC(=O)[C@H](CO)NC(=O)[C@@H](N)CO)CSSC[C@H](C(=O)N[C@H](Cc2ccccc2)C(=O)N[C@H](CCCN=C(N)N)C(=O)O)NC(=O)[C@@H]([C@@H](C)CC)NC(=O)[C@H](CCCN=C(N)N)NC(=O)[C@@H](CC(=O)O)NC1=O (stereo in doubt)
6 | 740 nM |  | CC[C@H](C)[C@@H]1NC(=O)[C@@H](CCCN=C(N)N)NC(=O)CNC(=O)CNC(=O)[C@@H](Cc2ccccc2)NC(=O)[C@@H](C)NC(=O)[C@H](NC(=O)[C@H](CO)NC(=O)[C@@H](N)CO)CSSC[C@H](C(=O)N[C@H](Cc2ccccc2)C(=O)N[C@H](CCCN=C(N)N)C(=O)O)NC(=O)[C@@H]([C@@H](C)CC)NC(=O)[C@H](CCCN=C(N)N)NC(=O)CNC1=O
7 | 540 nM |  | CC[C@H](C)[C@@H]1NC(=O)[C@@H](CCCN=C(N)N)NC(=O)CNC(=O)CNC(=O)[C@@H](Cc2ccccc2)NC(=O)[C@@H](C)NC(=O)[C@H](NC(=O)[C@H](CO)NC(=O)[C@@H](N)CO)CSSC[C@H](C(=O)N[C@H](Cc2ccccc2)C(=O)N[C@H](CCCN=C(N)N)C(=O)O)NC(=O)[C@@H]([C@@H](C)CC)NC(=O)[C@H](CCCN=C(N)N)NC(=O)[C@@H](CC(N)=O)NC1=O
8 |  | 200 nM | CC[C@H](C)[C@@H]1NC(=O)[C@@H](CCCN=C(N)N)NC(=O)[C@@H](C)NC(=O)[C@@H](C)NC(=O)[C@@H](C2CCCCC2)NC(=O)[C@H](NC(=O)[C@H](N)CCCN=C(N)N)CSSC[C@H](C(N)=O)NC(=O)[C@@H](CCCN=C(N)N)NC(=O)[C@H](Cc2ccccc2)NC(=O)[C@@H]([C@@H](C)CC)NC(=O)[C@H](CCCN=C(N)N)NC(=O)[C@@H](CC(=O)O)NC1=O

Second part, the molecule before the results:

Row | Compound | KL [1] | KL [2]
9 | CC[C@H](C)[C@@H]1NC(=O)[C@@H](CCCN=C(N)N)NC(=O)CNC(=O)CNC(=O)[C@@H](Cc2ccccc2)NC(=O)CNC(=O)[C@H](NC(=O)[C@H](CO)NC(=O)[C@@H](N)CO)CSSC[C@H](C(=O)N[C@H](Cc2ccccc2)C(=O)N[C@H](CCCN=C(N)N)C(=O)O)NC(=O)[C@@H]([C@@H](C)CC)NC(=O)[C@H](CCCN=C(N)N)NC(=O)[C@@H](CC(=O)OC)NC1=O | 1400 nM | 
10 | CC[C@H](C)[C@@H]1NC(=O)[C@@H](CCCN=C(N)N)NC(=O)CNC(=O)CNC(=O)[C@@H](Cc2ccccc2)NC(=O)[C@H](NC(=O)[C@H](N)CCCN=C(N)N)CSSC[C@H](C(=O)O)NC(=O)[C@@H](CCCN=C(N)N)NC(=O)[C@H](Cc2ccccc2)NC(=O)[C@@H]([C@@H](C)CC)NC(=O)[C@H](CCCN=C(N)N)NC(=O)[C@@H](CC(=O)O)NC1=O | 660 nM | 
11 | CC[C@H](C)[C@@H]1NC(=O)[C@@H](CCCN=C(N)N)NC(=O)CNC(=O)CNC(=O)[C@@H](Cc2ccccc2)NC(=O)[C@@H](C)NC(=O)[C@H](NC(=O)[C@H](CO)NC(=O)[C@@H](N)CO)CSSC[C@H](C(=O)N[C@H](Cc2ccccc2)C(=O)N[C@H](CCCN=C(N)N)C(=O)O)NC(=O)[C@@H]([C@@H](C)CC)NC(=O)[C@H](CCCN=C(N)N)NC(=O)[C@@H](C)NC1=O | 1000 nM | 
12 | CC[C@H](C)[C@@H]1NC(=O)[C@H](CCCN=C(N)N)NC(=O)[C@@H](CC(=O)O)NC(=O)[C@H]([C@@H](C)CC)NC(=O)[C@@H](CCCN=C(N)N)NC(=O)CNC(=O)CNC(=O)[C@@H](Cc2ccccc2)NC(=O)CNC(=O)[C@@H](NC(=O)[C@H](CO)NC(=O)[C@@H](N)CO)CSSC[C@@H](C(=O)N[C@H](Cc2ccccc2)C(=O)N[C@@H](CCCCN=C(N)N)C(=O)O)NC1=O | 320 nM | 
13 | CC[C@H](C)[C@@H]1NC(=O)[C@H](CCCN=C(N)N)NC(=O)[C@@H](CC(=O)O)NC(=O)[C@H]([C@@H](C)CC)NC(=O)[C@@H](CCCN=C(N)N)NC(=O)CNC(=O)CNC(=O)[C@@H](Cc2ccccc2)NC(=O)CNC(=O)[C@@H](NC(=O)[C@H](CO)NC(=O)[C@@H](N)CO)CSSC[C@@H](C(=O)N[C@H](Cc2ccccc2)C(=O)N[C@@H](CCCCN)C(=O)O)NC1=O | 5900 nM | 
14 | CC[C@H](C)[C@@H]1NC(=O)[C@@H](CCCN=C(N)N)NC(=O)CNC(=O)CNC(=O)[C@@H](C2CCCCC2)NC(=O)[C@H](NC(=O)[C@H](N)Cc2c[nH]cn2)CSSC[C@H](C(N)=O)NC(=O)[C@@H](CCCN=C(N)N)NC(=O)[C@H](Cc2ccccc2)NC(=O)[C@@H]([C@@H](C)CC)NC(=O)[C@H](CCCN=C(N)N)NC(=O)[C@@H](CC(=O)O)NC1=O | 190 nM | 
15 | CC[C@H](C)[C@@H]1NC(=O)[C@@H](CCCN=C(N)N)NC(=O)CNC(=O)CNC(=O)[C@@H](Cc2ccccc2)NC(=O)CNC(=O)[C@H](NC(=O)[C@H](CO)NC(=O)[C@@H](N)CO)CSSC[C@H](C(=O)N[C@H](Cc2ccccc2)C(=O)N[C@@H](CCCN=C(N)N)C(=O)O)NC(=O)[C@@H]([C@@H](C)CC)NC(=O)[C@H](CCCN=C(N)N)NC(=O)[C@@H](CC(=O)O)NC1=O | 620 nM | 
16 | CC[C@H](C)[C@@H]1NC(=O)[C@@H](CCCN=C(N)N)NC(=O)CNC(=O)CNC(=O)[C@@H](Cc2ccccc2)NC(=O)[C@@H](C)NC(=O)[C@H](NC(=O)[C@H](CO)NC(=O)[C@@H](N)CO)CSSC[C@H](C(=O)N[C@H](Cc2ccccc2)C(=O)N[C@H](CCCN=C(N)N)C(=O)O)NC(=O)[C@@H]([C@@H](C)CC)NC(=O)[C@H](CCCN=C(N)N)NC(=O)[C@@H](CO)NC1=O | 510 nM | 
17 | CC[C@H](C)[C@@H]1NC(=O)[C@@H](CCCN=C(N)N)NC(=O)CNC(=O)CNC(=O)[C@@H](Cc2ccc(O)cc2)NC(=O)C(C)NC(=O)[C@H](NC(=O)[C@H](CO)NC(=O)[C@@H](N)CO)CSSC[C@H](C(=O)N[C@H](Cc2ccccc2)C(=O)N[C@H](CCCN=C(N)N)C(=O)O)NC(=O)[C@@H]([C@@H](C)CC)NC(=O)[C@H](CCCN=C(N)N)NC(=O)[C@@H](CC(=O)O)NC1=O (stereo in doubt) | 10000 nM | 
